In brackets after ≈: the same amount, converted by molar mass. Residues, ends and D or L forms follow the SMILES beside them.
Columns and labels:
[1] = system: Bacillus subtilis (ATCC 6633); assay: microbe, parasite or virus in culture; type: cell-based; conditions: Bacillus subtilis (ATCC 6633); averages of three repeats; read-out: Minimum inhibitory concentration (MIC)
Description: (§1) Antibacterial assay against various Gram-positive and Gram-negative strains of bacteria was performed by the serial two-fold dilution method according to the previously reported procedure, [36]. The antibacterial assays were repeated thrice and the averages of these MIC values were reported.

[2] = system: Escherichia coli (ATCC 25922); assay: microbe, parasite or virus in culture; type: cell-based; conditions: Escherichia coli (ATCC 25922); averages of three repeats; read-out: Minimum inhibitory concentration (MIC)
Description: as §1

[3] = system: Escherichia coli (ATCC 9637); assay: microbe, parasite or virus in culture; type: cell-based; conditions: Escherichia coli (ATCC 9637); averages of three repeats; read-out: Minimum inhibitory concentration (MIC)
Description: as §1

[4] = system: Klebsiella pneumoniae (ATCC 27736); assay: microbe, parasite or virus in culture; type: cell-based; conditions: Klebsiella pneumoniae (ATCC 27736); averages of three repeats; read-out: Minimum inhibitory concentration (MIC)
Description: as §1

[5] = system: Pseudomonas aeruginosa (ATCC BAA-427); assay: microbe, parasite or virus in culture; type: cell-based; conditions: Pseudomonas aeruginosa (ATCC BAA-427); averages of three repeats; read-out: Minimum inhibitory concentration (MIC)
Description: as §1

[6] = system: Staphylococcus aureus (ATCC 25923); assay: microbe, parasite or virus in culture; type: cell-based; conditions: Staphylococcus aureus (ATCC 25923); averages of three repeats; read-out: Minimum inhibitory concentration (MIC)
Description: as §1

[7] = system: Staphylococcus aureus (ATCC 29213); assay: microbe, parasite or virus in culture; type: cell-based; conditions: Staphylococcus aureus (ATCC 29213); averages of three repeats; read-out: Minimum inhibitory concentration (MIC)
Description: as §1

[8] = system: Staphylococcus aureus (ATCC 33592) Methicillin resistant Genatmicin resistant; assay: microbe, parasite or virus in culture; type: cell-based; conditions: Staphylococcus aureus (ATCC 33592), methicillin and gentamicin resistant; averages of three repeats; read-out: Minimum inhibitory concentration (MIC)
Description: as §1

[9] = system: Staphylococcus aureus (ATCC 700698 MRSA); assay: microbe, parasite or virus in culture; type: cell-based; conditions: Staphylococcus aureus (ATCC 700698 MRSA); averages of three repeats; read-out: Minimum inhibitory concentration (MIC)
Description: as §1

[10] = system: Staphylococcus aureus (ATCC 700699 MRSA); assay: microbe, parasite or virus in culture; type: cell-based; conditions: Staphylococcus aureus (ATCC 700699 MRSA); averages of three repeats; read-out: Minimum inhibitory concentration (MIC)
Description: as §1

[11] = system: Staphylococcus aureus (BAA-44)MDR; assay: microbe, parasite or virus in culture; type: cell-based; conditions: Staphylococcus aureus (BAA-44) MDR; averages of three repeats; read-out: Minimum inhibitory concentration (MIC)
Description: as §1

[12] = system: Candida albicans (ATCC 10231); assay: microbe, parasite or virus in culture; type: cell-based; conditions: Candida albicans (ATCC 10231); NCCLS micro broth dilution, 35 °C, 48 h, absorbance 492 nm; read-out: Minimum inhibitory concentration (MIC)
Description: (§2) The anti- fungal activity of peptides was performed according to the standard micro broth dilution technique as per NCCLS guidelines. These plates were incubated in a moist chamber at 35 °C, and an absorbance at 492 nm was recorded on a VersaMax microplate reader after 48 h for C. albicans ATCC 10231 and C. parapsilosis ATCC 22019 and 72 h for C. neoformans.

[13] = system: Candida parapsilosis (ATCC 22019); assay: microbe, parasite or virus in culture; type: cell-based; conditions: Candida parapsilosis (ATCC 22019); NCCLS micro broth dilution, 35 °C, 48 h, absorbance 492 nm; read-out: Minimum inhibitory concentration (MIC)
Description: as §2

Cryptococcus neoformans = assay: microbe, parasite or virus in culture; type: cell-based; conditions: Cryptococcus neoformans; NCCLS micro broth dilution, 35 °C, 72 h, absorbance 492 nm; read-out: Minimum inhibitory concentration (MIC)
Description: as §2

[14] = system: Sporothrix schenckii (Patient isolates); assay: microbe, parasite or virus in culture; type: cell-based; conditions: Sporothrix schenckii (patient isolates); NCCLS micro broth dilution, 35 °C; read-out: Minimum inhibitory concentration (MIC)
E. coli (ATCC 25922) = type: cell-based, Escherichia coli; conditions: E. coli (ATCC 25922)
Description: (§3) E. coli ATCC25922 was grown to 10^6 CFU/ml in fresh MH broth with various divalent and monovalent salts at their physiological concentrations. Serial dilutions of chrysophsin-1 and its variants prepared with the same MH broth were added to the E. coli ATCC 25922 suspensions. The bacteria were incubated at 37 °C in a shaking incubator for 18 h and the MIC values of individual peptides against E. coli ATCC 25922 were determined. Thermal tolerance of Chrysophsin-1 and its variants was checked by incubating the peptides at 4 °C, 60 °C and 90 °C for 1 h prior to MIC determination. The antibacterial activity in presence of serum was carried out by adding a final concentration of 10% fetal bovine serum in the assay diluents containing 0.4% BSA, 0.02% glacial acetic acid. The subsequent steps in both the experiments were consistent with the MIC determination method.

E. coli ATCC 25922 [15] = type: cell-based, Escherichia coli; conditions: E. coli ATCC 25922
Description: as §3

S. aureus (ATCC 25923) = type: cell-based, Staphylococcus aureus; conditions: S. aureus (ATCC 25923)
Description: as §3

E. coli ATCC 25922 [16] = assay: Synergy with conventional antibiotics, checkerboard titration; type: cell-based, Escherichia coli
Description: The checkerboard titration method was followed to check the synergy of peptides with other antibiotics. First, 2-fold serial dilutions of the antibiotics and antimicrobial peptides were prepared. Subsequently, 50 μl each of different concentrations of antibiotics and of antimicrobial peptides was mixed and added into 100 μl of log phase bacteria culture in a 96-well plate. The plates were then incubated at 37 °C for 24 h. The fractional inhibitory concentration (FIC) index (FICI) was calculated as follows[39]: FICI=(MICofdrugAincombination)/(MICofdrugAalone)+(MICofdrugBincombination)/(MICofdrugB): FICI < 0.5 is considered to indicate synergy; 0.5 < FICI < 1.0 is considered additive; 1.0 < FICI < 4.0 is considered indifferent; and FICI > 4.0 is considered antagonism.

[17] = peptide incubated 1 h at 4 °C prior to MIC determination
[18] = peptide incubated 1 h at 60 °C prior to MIC determination
[19] = peptide incubated 1 h at 90 °C prior to MIC determination

## CC[C@H](C)[C@H](NC(=O)[C@H](C)NC(=O)[C@H](CCCCN)NC(=O)CNC(=O)[C@H](C)NC(=O)[C@H](Cc1c[nH]cn1)NC(=O)[C@@H](NC(=O)[C@H](C)NC(=O)CNC(=O)[C@H](CCCCN)NC(=O)[C@@H](NC(=O)[C@H](CC(C)C)NC(=O)[C@H](Cc1c[nH]c2ccccc12)NC(=O)CNC(=O)[C@H](Cc1ccccc1)NC(=O)[C@@H](N)Cc1ccccc1)[C@@H](C)CC)[C@@H](C)CC)C(=O)N[C@@H](Cc1c[nH]cn1)C(=O)NCC(=O)N[C@@H](CC(C)C)C(=O)N[C@H](C(=O)N[C@@H](Cc1c[nH]cn1)C(=O)N[C@@H](CCCNC(=N)N)C(=O)N[C@@H](CCCNC(=N)N)C(=O)N[C@@H](CCCNC(=N)N)C(=O)N[C@@H](Cc1c[nH]cn1)C(N)=O)[C@@H](C)CC [Chr-1, reference compound] (H-FFGWLIKGAIHAGKAIHGLIHRRRH-NH2; N-terminus assumed)
[1]
  MIC: 6 µM (≈ 17.3 µg/mL)
[2]
  MIC: 3 µM (≈ 8.67 µg/mL)
[3]
  MIC: 3.4 µM (≈ 9.83 µg/mL)
[4]
  MIC: 3 µM (≈ 8.67 µg/mL)
[5]
  MIC: 6.8 µM (≈ 19.7 µg/mL)
[6]
  MIC: 3 µM (≈ 8.67 µg/mL)
[7]
  MIC: 1.6 µM (≈ 4.63 µg/mL)
[8]
  MIC: 1.6 µM (≈ 4.63 µg/mL)
[9]
  MIC: 3 µM (≈ 8.67 µg/mL)
[10]
  MIC: 1.6 µM (≈ 4.63 µg/mL)
[11]
  MIC: 1.6 µM (≈ 4.63 µg/mL)
[12]
  MIC: 6.8 µM (≈ 19.7 µg/mL)
[13]
  MIC: 3 µM (≈ 8.67 µg/mL)
Cryptococcus neoformans
  MIC: 3 µM (≈ 8.67 µg/mL)
[14]
  MIC: 13.6 µM (≈ 39.3 µg/mL)
E. coli (ATCC 25922); [17]
  Antibacterial activity (MIC) after incubating peptide at 4 °C: 3 µM
E. coli (ATCC 25922); [18]
  Antibacterial activity (MIC) after incubating peptide at 60 °C: 8.3 µM
E. coli (ATCC 25922); [19]
  Antibacterial activity (MIC) after incubating peptide at 90 °C: 8.6 µM
E. coli ATCC 25922 [15]; 10% fetal bovine serum in assay diluent with 0.4% BSA, 0.02% glacial acetic acid
  Antibacterial activity (MIC) in the presence of 10% FBS: 17.2 µM
E. coli ATCC 25922 [15]; FeCl3 4 μM in MH broth, 37 °C, 18 h
  Antibacterial activity (MIC) in the presence of FeCl3: 4.3 µM
E. coli ATCC 25922 [15]; KCl 4.5 mM in MH broth, 37 °C, 18 h
  Antibacterial activity (MIC) in the presence of KCl: 4.3 µM
E. coli ATCC 25922 [15]; MgCl2 1 mM in MH broth, 37 °C, 18 h
  Antibacterial activity (MIC) in the presence of MgCl2: 8.6 µM
E. coli ATCC 25922 [15]; NH4Cl 6 μM in MH broth, 37 °C, 18 h
  Antibacterial activity (MIC) in the presence of NH4Cl: 4.3 µM
E. coli ATCC 25922 [15]; NaCl 150 mM in MH broth, 37 °C, 18 h
  Antibacterial activity (MIC) in the presence of NaCl: 8.3 µM
E. coli ATCC 25922 [15]; ZnCl2 8 μM in MH broth, 37 °C, 18 h
  Antibacterial activity (MIC) in the presence of ZnCl2: 4.3 µM
S. aureus (ATCC 25923); [17]
  Antibacterial activity (MIC) after incubating peptide at 4 °C: 3 µM
S. aureus (ATCC 25923); [18]
  Antibacterial activity (MIC) after incubating peptide at 60 °C: 12.6 µM
S. aureus (ATCC 25923); [19]
  Antibacterial activity (MIC) after incubating peptide at 90 °C: 16.6 µM
E. coli ATCC 25922 [16]
  interaction of peptide with chloramphenicol (by FICI): synergy (FICI < 0.5 is considered to indicate synergy)

Source: PMC5469811, “Identification of GXXXXG motif in Chrysophsin-1 and its implication in the design of analogs with cell-selective antimicrobial and anti-endotoxin activities” (Scientific Reports, 2017)
